Measured values reported in ChEMBL document CHEMBL5055685, “Discovery of the First Potent IDO1/IDO2 Dual Inhibitors: A Promising Strategy for Cancer Immunotherapy” (J Med Chem, 2021).
Calls of active or inactive are those of the source. The rule behind the calls is not given here.

Legend:
[1] = target: Serine/threonine-protein kinase Sgk1 (Homo sapiens) (UniProt O00141); experiment: Inhibition of SGK1 (unknown origin) at 1 uM
[2] = target: Citron Rho-interacting kinase (Homo sapiens) (UniProt O14578); experiment: Inhibition of STK21 (unknown origin) at 1 uM
[3] = target: Mitogen-activated protein kinase kinase kinase 5 (Homo sapiens) (UniProt Q99683); experiment: Inhibition of ASK1 (unknown origin) at 1 uM
Sequence of Mitogen-activated protein kinase kinase kinase 5 (Homo sapiens) (Q99683 whole entry): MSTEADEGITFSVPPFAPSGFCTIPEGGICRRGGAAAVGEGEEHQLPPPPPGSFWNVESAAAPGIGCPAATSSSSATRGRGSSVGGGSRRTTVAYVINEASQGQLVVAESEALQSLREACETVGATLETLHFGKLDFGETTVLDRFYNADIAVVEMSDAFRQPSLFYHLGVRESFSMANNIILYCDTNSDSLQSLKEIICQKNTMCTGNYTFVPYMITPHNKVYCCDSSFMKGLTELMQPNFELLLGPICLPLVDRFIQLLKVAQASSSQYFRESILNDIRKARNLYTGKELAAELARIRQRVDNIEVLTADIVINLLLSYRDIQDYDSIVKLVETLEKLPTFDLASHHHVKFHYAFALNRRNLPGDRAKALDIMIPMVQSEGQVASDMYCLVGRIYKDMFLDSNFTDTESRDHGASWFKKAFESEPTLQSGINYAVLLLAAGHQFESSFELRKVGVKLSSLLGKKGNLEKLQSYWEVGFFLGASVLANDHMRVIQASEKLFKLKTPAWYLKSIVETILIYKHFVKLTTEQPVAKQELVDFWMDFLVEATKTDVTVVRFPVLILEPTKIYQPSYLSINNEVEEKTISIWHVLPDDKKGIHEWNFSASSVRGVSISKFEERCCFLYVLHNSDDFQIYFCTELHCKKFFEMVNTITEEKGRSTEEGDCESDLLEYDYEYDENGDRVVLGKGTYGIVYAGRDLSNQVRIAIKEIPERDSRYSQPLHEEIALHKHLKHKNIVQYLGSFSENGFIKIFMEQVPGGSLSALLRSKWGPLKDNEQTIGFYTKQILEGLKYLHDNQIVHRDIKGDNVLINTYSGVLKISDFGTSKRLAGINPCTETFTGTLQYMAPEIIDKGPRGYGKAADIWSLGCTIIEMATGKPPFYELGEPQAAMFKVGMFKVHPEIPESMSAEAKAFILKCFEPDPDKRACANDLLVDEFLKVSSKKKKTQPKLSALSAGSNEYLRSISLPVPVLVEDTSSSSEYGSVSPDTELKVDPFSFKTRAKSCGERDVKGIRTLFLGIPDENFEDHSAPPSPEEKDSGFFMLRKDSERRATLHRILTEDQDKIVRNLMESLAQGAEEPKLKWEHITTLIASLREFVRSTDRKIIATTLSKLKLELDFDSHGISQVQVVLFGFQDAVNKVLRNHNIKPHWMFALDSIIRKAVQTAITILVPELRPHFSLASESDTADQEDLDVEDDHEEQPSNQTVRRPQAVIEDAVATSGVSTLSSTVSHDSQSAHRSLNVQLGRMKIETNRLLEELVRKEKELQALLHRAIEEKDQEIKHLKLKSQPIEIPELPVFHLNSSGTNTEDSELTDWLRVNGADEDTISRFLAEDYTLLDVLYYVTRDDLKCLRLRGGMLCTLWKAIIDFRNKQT

[4] = target: Protein kinase C alpha type (Homo sapiens) (UniProt P17252); experiment: Inhibition of PKCalpha (unknown origin)at 1 uM
Mus musculus [5] = experiment: In vivo inhibition of IDO1/IDO2 in BALB/c mouse xenografted with human HCT-116 cells assessed as reduction in KYN level in serum by […]; assay type: functional, organism-based
[6] = target: Calcium/calmodulin-dependent protein kinase kinase 1 (Homo sapiens) (UniProt Q8N5S9); experiment: Inhibition of CAMKK1 (unknown origin) at 1 uM
[7] = Protein binding in Beagle dog plasma by equilibrium dialysis; assay type: ADME, cell-free, Canis lupus familiaris; conditions: read-out: PPB (converted)
[8] = target: Serine/threonine-protein kinase N1 (Homo sapiens) (UniProt Q16512); experiment: Inhibition of PKN1 (unknown origin) at 1 uM
[9] = target: Homeodomain-interacting protein kinase 1 (Homo sapiens) (UniProt Q86Z02); experiment: Inhibition of HIPK1 (unknown origin) at 1 uM
[10] = Clearance in mouse liver microsomes; assay type: ADME, Microsome; conditions: read-out: CLH
[11] = target: Receptor-interacting serine/threonine-protein kinase 3 (Homo sapiens) (UniProt Q9Y572); experiment: Inhibition of RIPK3 (unknown origin) at 1 uM
[12] = target: Serine/threonine-protein kinase 3 (Homo sapiens) (UniProt Q13188); experiment: Inhibition of MST2 (unknown origin) at 1 uM
[13] = target: Aurora kinase B (Homo sapiens) (UniProt Q96GD4); experiment: Inhibition of Aurora B (unknown origin) at 1 uM
[14] = Cmax in Sprague-Dawley rat at 50 mg/kg, po; assay type: ADME, organism-based; set-up: dose 50 mg/kg, route po; conditions: in vivo
[15] = target: Interleukin-1 receptor-associated kinase 4 (Homo sapiens) (UniProt Q9NWZ3); experiment: Inhibition of IRAK4 (unknown origin) at 1 uM
Sequence of Interleukin-1 receptor-associated kinase 4 (Homo sapiens) (Q9NWZ3 whole entry): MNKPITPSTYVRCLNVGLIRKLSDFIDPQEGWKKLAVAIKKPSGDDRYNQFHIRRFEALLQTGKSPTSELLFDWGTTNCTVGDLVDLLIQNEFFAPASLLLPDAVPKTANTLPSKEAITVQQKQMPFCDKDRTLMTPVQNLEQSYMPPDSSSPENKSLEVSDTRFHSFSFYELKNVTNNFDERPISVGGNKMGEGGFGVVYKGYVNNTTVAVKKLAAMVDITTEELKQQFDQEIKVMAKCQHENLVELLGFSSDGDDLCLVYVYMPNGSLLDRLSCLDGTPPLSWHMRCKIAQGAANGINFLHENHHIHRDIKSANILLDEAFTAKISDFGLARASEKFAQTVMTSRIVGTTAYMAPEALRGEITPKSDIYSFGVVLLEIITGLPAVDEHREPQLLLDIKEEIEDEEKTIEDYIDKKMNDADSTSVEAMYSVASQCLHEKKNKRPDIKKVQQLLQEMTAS

[16] = target: Tyrosine-protein kinase Lck (Homo sapiens) (UniProt P06239); experiment: Inhibition of LCK (unknown origin) at 1 uM
[17] = target: Insulin receptor (Homo sapiens) (UniProt P06213); experiment: Inhibition of IR (unknown origin) at 1 uM
Sequence of Insulin receptor (Homo sapiens) (P06213 28-758 limits assumed): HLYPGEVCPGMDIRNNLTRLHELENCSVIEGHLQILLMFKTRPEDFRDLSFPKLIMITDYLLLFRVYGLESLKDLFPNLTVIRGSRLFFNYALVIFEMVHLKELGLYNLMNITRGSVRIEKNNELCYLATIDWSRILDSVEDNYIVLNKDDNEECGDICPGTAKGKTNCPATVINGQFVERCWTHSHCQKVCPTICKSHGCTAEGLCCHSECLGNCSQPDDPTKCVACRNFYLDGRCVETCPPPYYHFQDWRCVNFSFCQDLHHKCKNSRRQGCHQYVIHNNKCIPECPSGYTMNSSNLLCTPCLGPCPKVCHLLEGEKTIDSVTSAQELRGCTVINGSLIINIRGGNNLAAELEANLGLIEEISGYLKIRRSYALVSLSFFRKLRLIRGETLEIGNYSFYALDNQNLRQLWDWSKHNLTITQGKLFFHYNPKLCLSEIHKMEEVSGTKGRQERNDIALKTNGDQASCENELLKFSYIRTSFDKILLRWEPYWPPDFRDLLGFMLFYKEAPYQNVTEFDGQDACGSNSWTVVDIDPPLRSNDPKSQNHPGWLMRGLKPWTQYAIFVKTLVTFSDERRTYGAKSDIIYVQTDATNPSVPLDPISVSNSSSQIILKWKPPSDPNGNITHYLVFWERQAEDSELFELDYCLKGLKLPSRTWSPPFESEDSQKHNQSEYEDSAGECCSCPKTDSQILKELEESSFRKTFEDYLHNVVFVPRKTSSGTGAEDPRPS
Sequence of Insulin receptor (Homo sapiens) (P06213 763-1382 limits assumed): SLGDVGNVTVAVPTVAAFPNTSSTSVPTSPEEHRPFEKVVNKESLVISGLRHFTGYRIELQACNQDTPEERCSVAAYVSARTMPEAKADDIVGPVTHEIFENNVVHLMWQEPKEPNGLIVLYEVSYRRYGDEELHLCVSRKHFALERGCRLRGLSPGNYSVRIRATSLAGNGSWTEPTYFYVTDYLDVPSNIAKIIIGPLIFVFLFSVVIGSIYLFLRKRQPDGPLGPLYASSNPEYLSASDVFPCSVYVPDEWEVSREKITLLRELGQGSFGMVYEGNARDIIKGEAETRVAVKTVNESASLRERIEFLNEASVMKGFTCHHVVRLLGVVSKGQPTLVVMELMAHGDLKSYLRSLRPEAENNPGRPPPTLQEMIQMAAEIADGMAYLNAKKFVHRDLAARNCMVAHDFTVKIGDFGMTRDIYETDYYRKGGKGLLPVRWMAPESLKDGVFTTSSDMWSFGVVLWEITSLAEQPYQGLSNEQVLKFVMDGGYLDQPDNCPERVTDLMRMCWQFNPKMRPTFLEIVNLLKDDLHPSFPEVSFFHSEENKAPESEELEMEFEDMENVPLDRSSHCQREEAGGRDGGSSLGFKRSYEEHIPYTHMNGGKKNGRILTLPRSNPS

[18] = target: G protein-coupled receptor kinase 3 (Homo sapiens) (UniProt P35626); experiment: Inhibition of GRK3 (unknown origin) at 1 uM
[19] = target: Mitogen-activated protein kinase kinase kinase kinase 5 (Homo sapiens) (UniProt Q9Y4K4); experiment: Inhibition of KHS (unknown origin) at 1 uM
[20] = target: Serine/threonine-protein kinase Chk1 (Homo sapiens) (UniProt O14757); experiment: Inhibition of CHK1 (unknown origin) at 1 uM
[21] = target: Mitogen-activated protein kinase kinase kinase 12 (Homo sapiens) (UniProt Q12852); experiment: Inhibition of DLK (unknown origin) at 1 uM
[22] = target: Protein kinase C iota type (Homo sapiens) (UniProt P41743); experiment: Inhibition of PKCiota (unknown origin)at 1 uM
Sequence of Protein kinase C iota type (Homo sapiens) (P41743 whole entry): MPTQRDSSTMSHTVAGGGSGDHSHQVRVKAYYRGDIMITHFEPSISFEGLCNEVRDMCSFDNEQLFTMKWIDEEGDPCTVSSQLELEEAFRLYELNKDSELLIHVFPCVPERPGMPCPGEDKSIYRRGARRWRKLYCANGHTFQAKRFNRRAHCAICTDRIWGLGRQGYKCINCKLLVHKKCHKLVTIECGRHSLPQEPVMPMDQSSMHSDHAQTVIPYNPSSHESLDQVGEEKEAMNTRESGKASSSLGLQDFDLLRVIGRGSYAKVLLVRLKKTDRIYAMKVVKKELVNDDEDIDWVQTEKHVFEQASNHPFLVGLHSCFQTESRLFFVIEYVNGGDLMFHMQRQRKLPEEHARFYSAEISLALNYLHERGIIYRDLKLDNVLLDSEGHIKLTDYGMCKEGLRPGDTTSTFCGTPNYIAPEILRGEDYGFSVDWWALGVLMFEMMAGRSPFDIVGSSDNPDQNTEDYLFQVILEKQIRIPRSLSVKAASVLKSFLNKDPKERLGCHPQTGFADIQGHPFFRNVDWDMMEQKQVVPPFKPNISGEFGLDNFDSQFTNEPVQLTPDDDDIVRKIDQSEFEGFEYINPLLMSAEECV

[23] = target: Serine/threonine-protein kinase TAO1 (Homo sapiens) (UniProt Q7L7X3); experiment: Inhibition of TAOK1 (unknown origin) at 1 uM
Sequence of Serine/threonine-protein kinase TAO1 (Homo sapiens) (Q7L7X3 whole entry): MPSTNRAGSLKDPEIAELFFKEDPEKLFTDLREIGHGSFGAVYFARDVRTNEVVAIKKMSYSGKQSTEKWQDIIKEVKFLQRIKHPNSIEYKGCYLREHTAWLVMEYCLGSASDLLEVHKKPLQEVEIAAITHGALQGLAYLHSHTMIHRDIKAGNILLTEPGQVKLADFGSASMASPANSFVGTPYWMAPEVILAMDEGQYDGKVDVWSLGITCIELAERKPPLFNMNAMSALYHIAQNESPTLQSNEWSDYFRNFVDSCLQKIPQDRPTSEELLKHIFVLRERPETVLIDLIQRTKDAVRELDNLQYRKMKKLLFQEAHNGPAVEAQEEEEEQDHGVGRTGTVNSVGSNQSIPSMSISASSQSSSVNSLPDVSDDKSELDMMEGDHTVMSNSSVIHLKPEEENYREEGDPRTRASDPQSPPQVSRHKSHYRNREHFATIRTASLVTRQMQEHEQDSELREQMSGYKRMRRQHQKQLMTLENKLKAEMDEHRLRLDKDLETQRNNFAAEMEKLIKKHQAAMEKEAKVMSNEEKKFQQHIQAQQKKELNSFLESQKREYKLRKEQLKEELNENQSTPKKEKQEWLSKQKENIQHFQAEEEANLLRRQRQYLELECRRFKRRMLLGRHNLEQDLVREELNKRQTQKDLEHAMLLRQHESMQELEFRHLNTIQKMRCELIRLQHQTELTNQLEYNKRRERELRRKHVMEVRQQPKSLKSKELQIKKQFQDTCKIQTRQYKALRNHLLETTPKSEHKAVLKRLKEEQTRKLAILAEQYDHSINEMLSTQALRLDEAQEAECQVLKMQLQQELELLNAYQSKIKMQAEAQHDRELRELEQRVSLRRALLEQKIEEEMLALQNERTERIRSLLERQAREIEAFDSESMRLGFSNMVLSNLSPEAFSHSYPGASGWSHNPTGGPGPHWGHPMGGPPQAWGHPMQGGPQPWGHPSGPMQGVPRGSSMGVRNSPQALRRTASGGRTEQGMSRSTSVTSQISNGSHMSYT

[24] = target: CDK18/Cyclin Y (Homo sapiens) (UniProt Q07002+Q8ND76); experiment: Inhibition of CDK18/cyclin-Y (unknown origin) at 1 uM; assay type: protein-complex assay
[25] = target: Receptor tyrosine-protein kinase erbB-4 (Homo sapiens) (UniProt Q15303); experiment: Inhibition of ERBB4 (unknown origin) at 1 uM
[26] = AUC (0 to t) in Sprague-Dawley rat at 50 mg/kg, po; assay type: ADME, organism-based; set-up: dose 50 mg/kg, route po; conditions: in vivo
[27] = target: RAC-beta serine/threonine-protein kinase (Homo sapiens) (UniProt P31751); experiment: Inhibition of AKT2 (unknown origin) at 1 uM
[28] = target: Ephrin type-A receptor 7 (Homo sapiens) (UniProt Q15375); experiment: Inhibition of EPHA7 (unknown origin) at 1 uM
[29] = target: Tyrosine-protein kinase Blk (Homo sapiens) (UniProt P51451); experiment: Inhibition of BLK (unknown origin) at 1 uM
[30] = target: Activated CDC42 kinase 1 (Homo sapiens) (UniProt Q07912); experiment: Inhibition of ACK1 (unknown origin) at 1 uM
Mus musculus [31] = experiment: In vivo inhibition of IDO1/IDO2 in BALB/c mouse xenografted with human HCT-116 cells assessed as increase in tryptophan level in serum by […]; assay type: functional, organism-based
[32] = target: Bone morphogenetic protein receptor type-2 (Homo sapiens) (UniProt Q13873); experiment: Inhibition of BMPR2 (unknown origin) at 1 uM
[33] = target: Platelet-derived growth factor receptor beta (Homo sapiens) (UniProt P09619); experiment: Inhibition of PDGFRbeta (unknown origin) at 1 uM
[34] = target: Dual specificity mitogen-activated protein kinase kinase 1 (Homo sapiens) (UniProt Q02750); experiment: Inhibition of MEK1 (unknown origin) at 1 uM
[35] = target: CDK2/Cyclin A2 (Homo sapiens) (UniProt P24941+P20248); experiment: Inhibition of CDK2/cyclin-A (unknown origin) at 1 uM; assay type: protein-complex assay
[36] = target: Calcium/calmodulin-dependent protein kinase type II subunit gamma (Homo sapiens) (UniProt Q13555); experiment: Inhibition of CAMK2G (unknown origin) at 1 uM
[37] = target: SRSF protein kinase 2 (Homo sapiens) (UniProt P78362); experiment: Inhibition of SRPK2 (unknown origin) at 1 uM
[38] = target: Tyrosine-protein kinase Lyn (Homo sapiens) (UniProt P07948); experiment: Inhibition of LYN (unknown origin) at 1 uM
HCT-116 = experiment: Antitumor immunity in BALB/c mouse xenografted with human HCT-116 cells assessed as live Treg cells in tumor-draining lymph nodes by propidium iodide staining based flow cytometry analysis (reference value: 70.6 %); assay type: functional
[39] = target: Macrophage colony-stimulating factor 1 receptor (Homo sapiens) (UniProt P07333); experiment: Inhibition of FMS (unknown origin) at 1 uM
[40] = target: Death-associated protein kinase 1 (Homo sapiens) (UniProt P53355); experiment: Inhibition of DAPK1 (unknown origin) at 1 uM
[41] = target: 3-phosphoinositide-dependent protein kinase 1 (Homo sapiens) (UniProt O15530); experiment: Inhibition of PDK1 (unknown origin) at 1 uM
[42] = target: Mitogen-activated protein kinase kinase kinase 21 (Homo sapiens) (UniProt Q5TCX8); experiment: Inhibition of MLK4 (unknown origin)at 1 uM
[43] = target: Cyclin-dependent kinase 4/cyclin D1 (Homo sapiens) (UniProt P11802+P24385); experiment: Inhibition of CDK4/cyclin-D1 (unknown origin) at 1 uM; assay type: protein-complex assay
[44] = Metabolic stability in mouse liver microsomes assessed as rate constant; assay type: ADME, Microsome

Compound: OCCOCc1cn(CCNc2nonc2/C(=N/O)Nc2ccc(F)c(Br)c2)nn1
- inhibition [1]: inactive
- inhibition [2]: inactive
- inhibition [3]: inactive
- inhibition [4]: inactive
- inhibition (Mus musculus [5]): Active
- inhibition [6]: inactive
- fraction unbound [7]: 0.0498
- inhibition [8]: inactive
- inhibition [9]: inactive
- microsomal CLint [10]: 32.2 µL/min/mg
- inhibition [11]: inactive
- inhibition [12]: inactive
- inhibition [13]: inactive
- Cmax [14]: 1040 ng/mL
- inhibition [15]: inactive
- inhibition [16]: inactive
- inhibition [17]: inactive
- inhibition [18]: inactive
- inhibition [19]: inactive
- inhibition [20]: inactive
- inhibition [21]: inactive
- inhibition [22]: inactive
- inhibition [23]: inactive
- inhibition [24]: inactive
- inhibition [25]: inactive
- AUC(0-t) [26]: 3640 ng·h/mL
- inhibition [27]: inactive
- inhibition [28]: inactive
- inhibition [29]: inactive
- inhibition [30]: inactive
- inhibition (Mus musculus [31]): Active
- inhibition [32]: inactive
- inhibition [33]: inactive
- inhibition [34]: inactive
- inhibition [35]: inactive
- inhibition [36]: inactive
- inhibition [37]: inactive
- inhibition [38]: inactive
- Activity (HCT-116): 88.1%
- inhibition [39]: inactive
- inhibition [40]: inactive
- inhibition [41]: inactive
- inhibition [42]: inactive
- inhibition [43]: inactive
- K [44]: 0.0161 min⁻¹
